Source: ChEMBL document CHEMBL5523742 (J Med Chem, 2024)
Values belong to the compound of their own block, whether it stands above or below them. Calls of active or inactive are those of the source. No cut-off for these calls is given here. Numbered stars: 1 amine (or outer) side, 2 acyl side, 3 side chain; on linkers, the order of the positions; unused ones are H or OH. Square brackets hold non-standard residues; d marks the D form. Side chains are listed from the residue outwards. Peptide text beside a SMILES is read from it. * marks the point of attachment. ξ: configuration not given here. C20 diacid = O=C(O)CCCCCCCCCCCCCCCCCCC(=O)*; γGlu = O=C(O)[C@H](CCC(=O)[*:2])N[*:1]; ξγGlu = O=C(O)C(CCC(=O)[*:2])N[*:1]; AEEA = NCCOCCOCC(=O)O; Aib = CC(C)(N)C(=O)O

Key:
[1] = Chemical stability of compound at pH 8 assessed as compound degradation; assay type: physicochemical; conditions: buffer; for degraded: read-out: Drug degradation
Secretin receptor = Secretin receptor (Homo sapiens, UniProt P47872); test: Agonist activity human SCTR stably expressed in CHO-K1 cells assessed as […] in cAMP accumulation incubated for 30 mins by TR-FRET assay; assay type: functional, cell-based
Chain of Secretin receptor (P47872 whole entry): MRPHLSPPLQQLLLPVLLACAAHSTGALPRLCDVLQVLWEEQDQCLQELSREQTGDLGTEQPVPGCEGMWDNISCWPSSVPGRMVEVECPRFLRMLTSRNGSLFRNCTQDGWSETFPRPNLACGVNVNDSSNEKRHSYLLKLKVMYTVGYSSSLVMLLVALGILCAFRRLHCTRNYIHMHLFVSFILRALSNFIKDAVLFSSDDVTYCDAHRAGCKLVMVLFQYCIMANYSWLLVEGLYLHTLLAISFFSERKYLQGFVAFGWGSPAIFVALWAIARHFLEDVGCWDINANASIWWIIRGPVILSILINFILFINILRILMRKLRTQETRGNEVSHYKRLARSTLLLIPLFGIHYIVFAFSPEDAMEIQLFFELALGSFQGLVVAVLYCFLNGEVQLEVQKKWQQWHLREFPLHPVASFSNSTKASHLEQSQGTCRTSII

[2] = target: Glucagon-like peptide 1 receptor (Homo sapiens, UniProt P43220); test: Agonist activity human GLP-1R stably expressed in CHO-K1 cells assessed as […] in cAMP accumulation incubated for 30 mins by TR-FRET assay; assay type: functional, cell-based
Chain of Glucagon-like peptide 1 receptor (P43220 whole entry): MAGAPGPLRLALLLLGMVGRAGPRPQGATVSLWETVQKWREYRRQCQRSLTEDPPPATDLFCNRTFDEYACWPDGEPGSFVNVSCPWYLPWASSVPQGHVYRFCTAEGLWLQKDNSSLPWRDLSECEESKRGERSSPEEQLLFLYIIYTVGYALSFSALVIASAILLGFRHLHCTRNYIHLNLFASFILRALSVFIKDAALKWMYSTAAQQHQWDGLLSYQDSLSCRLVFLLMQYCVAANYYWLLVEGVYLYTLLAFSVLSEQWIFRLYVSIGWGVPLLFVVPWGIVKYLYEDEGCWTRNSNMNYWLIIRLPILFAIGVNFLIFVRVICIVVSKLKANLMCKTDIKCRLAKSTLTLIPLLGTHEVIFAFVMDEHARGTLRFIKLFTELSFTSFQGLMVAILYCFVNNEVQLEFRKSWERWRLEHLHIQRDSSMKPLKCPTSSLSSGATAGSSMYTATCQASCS

[3] = Chemical stability of compound at pH 7 assessed as compound degradation; assay type: physicochemical; conditions: buffer
[4] = Drug concentration in sc dosed C57BL/6JRj mouse plasma administered once daily for 28 days and measured after 24 hrs by LC-MS/MS analysis; assay type: ADME, organism-based; conditions: in vivo, 696 h, dose 3-30 nmol/kg, time 29 day
[5] = Toxicity in sc dosed C57BL/6JRj mouse model assessed as reduction in body weight administered once daily for 28 days; assay type: organism-based; conditions: in vivo, 672 h, dose 3-30 nmol/kg, time 28 day
Homo sapiens = species on record: Homo sapiens; test: Selectivity index, ratio of EC50 for agonist activity human SCTR stably expressed in CHO-K1 cells assessed as […] in cAMP accumulation to EC50 for agonist activity human GLP-1R stably expressed in CHO-K1 cells assessed as […] in cAMP accumulation; assay type: cell-based
[6] = target: Glucagon receptor (Homo sapiens) (UniProt P47871); test: Activation of GCGR (unknown origin) upto 3000 nM
Chain of Glucagon receptor (Homo sapiens) (P47871 whole entry): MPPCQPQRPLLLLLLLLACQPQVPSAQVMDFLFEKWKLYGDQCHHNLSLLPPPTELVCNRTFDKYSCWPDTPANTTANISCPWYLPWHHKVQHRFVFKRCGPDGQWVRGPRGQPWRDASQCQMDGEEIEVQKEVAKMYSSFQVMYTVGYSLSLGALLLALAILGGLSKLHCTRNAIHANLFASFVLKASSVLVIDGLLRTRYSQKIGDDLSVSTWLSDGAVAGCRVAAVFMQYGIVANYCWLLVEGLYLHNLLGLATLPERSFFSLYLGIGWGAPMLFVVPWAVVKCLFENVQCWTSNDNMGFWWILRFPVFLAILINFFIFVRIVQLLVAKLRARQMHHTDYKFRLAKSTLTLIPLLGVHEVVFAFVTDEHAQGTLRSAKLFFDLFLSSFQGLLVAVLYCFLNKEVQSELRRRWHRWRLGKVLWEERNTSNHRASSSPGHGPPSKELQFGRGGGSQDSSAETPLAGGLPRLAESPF

[7] = target: T1, Gastric inhibitory polypeptide receptor (Homo sapiens) (UniProt P48546); test: Activation of GIPR (unknown origin) upto 3000 nM
T1 sequence (whole entry): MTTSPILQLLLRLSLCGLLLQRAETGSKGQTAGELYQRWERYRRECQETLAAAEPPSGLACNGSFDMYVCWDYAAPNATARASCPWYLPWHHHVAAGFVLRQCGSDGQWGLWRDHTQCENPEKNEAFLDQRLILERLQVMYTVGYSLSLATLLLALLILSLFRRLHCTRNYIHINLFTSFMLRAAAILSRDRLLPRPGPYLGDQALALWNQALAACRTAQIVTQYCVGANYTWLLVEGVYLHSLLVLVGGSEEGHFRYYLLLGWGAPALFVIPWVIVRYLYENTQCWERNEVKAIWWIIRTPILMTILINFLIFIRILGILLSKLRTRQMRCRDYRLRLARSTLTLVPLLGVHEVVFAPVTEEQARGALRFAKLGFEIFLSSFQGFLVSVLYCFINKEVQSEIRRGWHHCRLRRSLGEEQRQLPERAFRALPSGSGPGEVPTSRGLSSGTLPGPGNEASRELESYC

Mus musculus [8] = test: Protection against diet-induced obesity in sc dosed C57BL/6JRj mouse model assessed as reduction in food intake administered once daily for 28 days and measured after 2 to 3 days; assay type: functional, organism-based; conditions: dose 3-30 nmol/kg, time 28-31 day
[9] = target: T2, Glucagon-like peptide 2 receptor (Homo sapiens) (UniProt O95838); test: Activation of GLP-2R (unknown origin) upto 3000 nM
T2 sequence (whole entry): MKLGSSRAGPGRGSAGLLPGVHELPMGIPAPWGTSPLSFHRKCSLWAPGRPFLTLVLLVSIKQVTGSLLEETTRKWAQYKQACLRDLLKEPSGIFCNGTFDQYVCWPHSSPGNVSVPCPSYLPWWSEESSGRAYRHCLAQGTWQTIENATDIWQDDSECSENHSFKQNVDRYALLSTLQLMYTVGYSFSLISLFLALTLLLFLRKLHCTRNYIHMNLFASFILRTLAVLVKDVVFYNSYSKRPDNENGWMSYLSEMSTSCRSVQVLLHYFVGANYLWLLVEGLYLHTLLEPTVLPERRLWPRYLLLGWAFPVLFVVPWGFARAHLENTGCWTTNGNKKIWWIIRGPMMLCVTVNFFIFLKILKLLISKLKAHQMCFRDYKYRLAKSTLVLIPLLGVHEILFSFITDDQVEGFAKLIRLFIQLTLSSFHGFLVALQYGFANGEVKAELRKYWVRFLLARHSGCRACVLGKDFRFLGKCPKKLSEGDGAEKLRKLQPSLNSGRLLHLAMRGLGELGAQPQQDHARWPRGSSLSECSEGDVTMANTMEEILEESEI

Mus musculus [10] = test: Protection against diet-induced obesity in C57BL/6JRj mouse model assessed as reduction in whole-body adipose tissue mass at 3 to 30 nmol/kg administered once daily for 28 days; assay type: functional, organism-based; conditions: dose 3-30 nmol/kg, time 28.0 day

Drug degradation [1]: 9%
EC50 (Secretin receptor; cho-k1): 0.002 nM
EC50 [2]: 2300 nM
Drug degradation [3]: 8.6%
Compound: SECRETIN [listing 1 of 2 here]

degraded [1]: 0.55%
Cp [4]: Dose-Dependent Effect
degraded ([3]; read-out: Drug degradation): 1.4%
Compound: CC(C)C[C@H](NC(=O)[C@H](Cc1ccccc1)NC(=O)[C@H](CCCNC(=N)N)NC(=O)[C@H](CCC(N)=O)NC(=O)[C@H](CC(C)C)NC(=O)C(C)(C)NC(=O)[C@H](C)NC(=O)[C@H](CCC(=O)O)NC(=O)[C@H](CCC(=O)O)NC(=O)[C@H](CCCCNC(=O)COCCOCCNC(=O)COCCOCCNC(=O)CC[C@H](NC(=O)CCCCCCCCCCCCCCCCCCC(=O)O)C(=O)O)NC(=O)[C@H](CC(C)C)NC(=O)[C@H](Cc1ccc(O)cc1)NC(=O)[C@H](CO)NC(=O)[C@@H](NC(=O)[C@H](CC(=O)O)NC(=O)[C@H](CO)NC(=O)[C@@H](NC(=O)[C@H](Cc1ccccc1)NC(=O)[C@@H](NC(=O)CNC(=O)[C@H](CCC(=O)O)NC(=O)C(C)(C)NC(=O)[C@@H](N)Cc1c[nH]cn1)[C@@H](C)O)[C@@H](C)O)C(C)C)C(=O)N[C@@H](CCC(=O)O)C(=O)N[C@@H](Cc1c[nH]cn1)C(=O)N[C@@H](CC(C)C)C(=O)N[C@H](C(N)=O)C(C)C (H-H[Aib]EGTFTSDVSYLK([AEEA-AEEA-γGlu-C20 diacid])EEA[Aib]LQRFLEHLV-NH2)
Activity [5]: Dose-Dependent Effect

Activity [6]: inactive
Activity [7]: inactive
Activity [9]: inactive
Compound: CC(C)C[C@H](NC(=O)[C@H](Cc1ccccc1)NC(=O)[C@H](CCCNC(=N)N)NC(=O)[C@H](CCC(N)=O)NC(=O)[C@H](CC(C)C)NC(=O)C(C)(C)NC(=O)[C@H](C)NC(=O)[C@H](CCC(=O)O)NC(=O)[C@H](CCC(=O)O)NC(=O)[C@H](CCCCNC(=O)COCCOCCNC(=O)COCCOCCNC(=O)CCC(NC(=O)CCCCCCCCCCCCCCCCCCC(=O)O)C(=O)O)NC(=O)[C@H](CC(C)C)NC(=O)[C@H](Cc1ccc(O)cc1)NC(=O)[C@H](CO)NC(=O)[C@@H](NC(=O)[C@H](CC(=O)O)NC(=O)[C@H](CO)NC(=O)[C@@H](NC(=O)[C@H](Cc1ccccc1)NC(=O)[C@@H](NC(=O)CNC(=O)[C@H](CCC(=O)O)NC(=O)C(C)(C)NC(=O)[C@@H](N)Cc1c[nH]cn1)[C@@H](C)O)[C@@H](C)O)C(C)C)C(=O)N[C@@H](CCC(=O)O)C(=O)N[C@@H](Cc1c[nH]cn1)C(=O)N[C@@H](CC(C)C)C(=O)N[C@H](C(N)=O)C(C)C (some centres not stated) (H-H[Aib]EGTFTSDVSYLK([AEEA-AEEA-ξγGlu-C20 diacid])EEA[Aib]LQRFLEHLV-NH2)
Ratio EC50 (Homo sapiens): 10600
Activity (Mus musculus [8]): Dose-Dependent Effect
Activity (Mus musculus [10]): Active

Second part, the compound before the results:

Compound: CC[C@H](C)[C@H](NC(=O)[C@H](Cc1ccccc1)NC(=O)[C@H](CCC(=O)O)NC(=O)[C@H](CCCCN)NC(=O)[C@H](C)NC(=O)[C@H](C)NC(=O)[C@H](CCC(N)=O)NC(=O)CNC(=O)[C@H](CCC(=O)O)NC(=O)[C@H](CC(C)C)NC(=O)[C@H](Cc1ccc(O)cc1)NC(=O)[C@H](CO)NC(=O)[C@H](CO)NC(=O)[C@@H](NC(=O)[C@H](CC(=O)O)NC(=O)[C@H](CO)NC(=O)[C@@H](NC(=O)[C@H](Cc1ccccc1)NC(=O)[C@@H](NC(=O)CNC(=O)[C@H](CCC(=O)O)NC(=O)[C@H](C)NC(=O)[C@@H](N)Cc1c[nH]cn1)[C@H](C)O)[C@@H](C)O)C(C)C)C(=O)N[C@@H](C)C(=O)N[C@@H](Cc1c[nH]c2ccccc12)C(=O)N[C@@H](CC(C)C)C(=O)N[C@H](C(=O)N[C@@H](CCCCN)C(=O)NCC(=O)N[C@@H](CCCNC(=N)N)C(=O)O)C(C)C
degraded [1]: 8.1%
EC50 (Secretin receptor): 800 nM

Compound: SECRETIN [listing 2 of 2 here]
Ratio EC50 (Homo sapiens): 1 10^-6No_unit
